“Also recorded” adds a separate entry of the source.
Legend:
FLJ40298-derived protein = FLJ40298-derived protein (Homo sapiens, UniProt Q8N5S3, P254L/R275T); assay: SEC/MS interaction analysis, FLJ40298-derived protein (hypothetical protein FLJ40298); type: binding
From the text: (§1) To analyze the interactions between commonly used drugs and proteins expressed from human full-length cDNA clones while keeping both the proteins and the compounds in non-modified, non-immobilized state, size exclusion chromatography (SEC) and mass analysis were used in combination. The specific procedures are shown below.
(§2) The compound-protein mixture prepared in step 1 was subjected to chromatography using an SEC column, the compound and the protein were separated by SEC, and the compound that interacted with the bound compound or protein contained in the protein fraction was analyzed using a mass analyzer.
(§3) Protein concentrations were measured using BCA Protein Assay (PIERCE), in consideration of the purity calculated by SDS-PAGE.
(§4) Mass analysis was performed using LCQ DECA XP (Thermoelectron) or Q-TOF micro (Micromass), equipped with an ESI probe. The LC pump used was Agilent 1100 (Yokogawa Analytical Systems), and the autosampler used was HTC-PAL (CTC Analytics) equipped with a cooling stacker. The SEC column used was a micro-LC column or a 384-well spin column. […]
(§5) In the 384-well spin column method, Unifilter 100 (Whatman), packed with 10 μL (dry volume) of Bio-Gel P6 (BIO-RAD) and swollen with milliQ water, was used as the SEC column. […] The SEC spin column was mounted on an acetonitrile-aliquoted 384-well U-bottom plate and centrifuged; the SEC spin column filtrate, which is a protein fraction, was recovered in 50% acetonitrile. The protein precipitate produced by the acetonitrile was removed via centrifugation and filtration for deproteinization; the resulting filtrate was concentrated by centrifugal concentration and re-dissolved in 10 μL of 50% methanol to obtain a mass analysis sample. The mobile phase supplied to the mass analyzer was 0.1% formic acid/50% methanol solution in the positive ion mode, and 0.1% ammonia/50% methanol solution in the negative ion mode; these mobile phases were used at a flow rate of 40 μL/min. 2-μL of mass analysis samples were injected using an autosampler at 2-minute intervals; the mass spectral intensity of the compound was measured to retrieve the spectral intensity of the pharmaceutical compound contained in the SEC spin column filtrate (protein fraction eluted from SEC).

[1] = test system: FLJXXXXX-derived proteins; assay: SEC/MS spin column interaction analysis of FLJXXXXX-derived proteins and various compounds (Tables 30-1 to 30-4); type: binding, human; conditions: SEC spin column filtrate, spectral intensity increased with doses of compound and protein
FLJ12857-derived protein = target: T1, FLJ12857-derived protein (Homo sapiens, UniProt O75781, T107A); assay: SEC/MS interaction analysis, FLJ12857-derived protein (Paralemmin; PALM); type: binding
T1 construct: His-tag (N); made in house; host or cells: Escherichia coli BL21star(DE3)pLysS
T1 sequence (O75781 74-343 isoform O75781-2 T107A): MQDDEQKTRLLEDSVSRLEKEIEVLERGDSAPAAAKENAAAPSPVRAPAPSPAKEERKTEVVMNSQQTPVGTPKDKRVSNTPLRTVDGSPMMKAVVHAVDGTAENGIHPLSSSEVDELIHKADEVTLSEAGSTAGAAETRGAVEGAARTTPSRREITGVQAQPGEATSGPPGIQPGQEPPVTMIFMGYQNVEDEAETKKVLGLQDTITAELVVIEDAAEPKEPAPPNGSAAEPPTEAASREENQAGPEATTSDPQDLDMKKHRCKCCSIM
From the text: as §1, §2, §3, §4, §5

FLJ41550-derived protein = assay: SEC/MS interaction analysis, FLJ41550-derived protein (SAMHD1); type: binding, human
From the text: as §1, §2, §3, §4, §5

[2] = compound 12.5 μM, protein 10 μM
[3] = compound 12.5 μM, protein 25 μM
[4] = compound 62.5 μM, protein 10 μM
[5] = compound 62.5 μM, protein 25 μM
[6] = spin column method, doses of both compound and protein varied

Chain of FLJ40298-derived protein (Q8N5S3 122-287 P254L/R275T): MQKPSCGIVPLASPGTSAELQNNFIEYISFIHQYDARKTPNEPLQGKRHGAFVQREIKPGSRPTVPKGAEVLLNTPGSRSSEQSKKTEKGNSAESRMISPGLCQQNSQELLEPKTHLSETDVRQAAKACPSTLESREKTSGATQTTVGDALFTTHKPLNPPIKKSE

CCCCOc1cc(C(=O)OCCN(CC)CC)ccc1N [benoxinate]
spectrum intensity of the compound in the SEC spin column filtrate (FLJ40298-derived protein; compound 12.5 μM, protein 0 μM): 202235 | spectrum intensity of the compound in the SEC spin column filtrate (FLJ40298-derived protein; compound 12.5 μM, protein 5 μM): 285949 | spectrum intensity of the compound in the SEC spin column filtrate (FLJ40298-derived protein; [2]): 263958 | spectrum intensity of the compound in the SEC spin column filtrate (FLJ40298-derived protein; [3]): 299357 | spectrum intensity of the compound in the SEC spin column filtrate (FLJ40298-derived protein; compound 25 μM, protein 0 μM): 557220 | spectrum intensity of the compound in the SEC spin column filtrate (FLJ40298-derived protein; compound 25 μM, protein 5 μM): 1519215 | spectrum intensity of the compound in the SEC spin column filtrate (FLJ40298-derived protein; compound 25 μM, protein 10 μM): 552560 | spectrum intensity of the compound in the SEC spin column filtrate (FLJ40298-derived protein; compound 25 μM, protein 25 μM): 583103 | spectrum intensity of the compound in the SEC spin column filtrate (FLJ40298-derived protein; compound 62.5 μM, protein 0 μM): 815144 | spectrum intensity of the compound in the SEC spin column filtrate (FLJ40298-derived protein; compound 62.5 μM, protein 5 μM): 225597 | spectrum intensity of the compound in the SEC spin column filtrate (FLJ40298-derived protein; [4]): 1509221 | spectrum intensity of the compound in the SEC spin column filtrate (FLJ40298-derived protein; [5]): 2027848 | interaction judged from spectrum intensity of the compound in the SEC spin column filtrate (protein fraction eluted from SEC) (FLJ40298-derived protein; [6]): concentration-dependent interaction | FLJ No of the derived protein with which the compound was judged to exhibit a concentration-dependent interaction [1]: FLJ40298

CC(=O)O[C@H]1C[C@@H]2CC[C@@H]3[C@H](CC[C@@]4(C)[C@H]3C[C@H]([N+]3(C)CCCCC3)[C@@H]4OC(C)=O)[C@@]2(C)C[C@@H]1[N+]1(C)CCCCC1 [pancuronium bromide]
FLJ No of the derived protein with which the compound was judged to exhibit a concentration-dependent interaction [1]: FLJ12857 | spectrum intensity of the compound in the SEC spin column filtrate (FLJ12857-derived protein; compound 12.5 μM, protein 0 μM): 50699 | spectrum intensity of the compound in the SEC spin column filtrate (FLJ12857-derived protein; compound 12.5 μM, protein 5 μM): 65210 | spectrum intensity of the compound in the SEC spin column filtrate (FLJ12857-derived protein; [2]): 163033 | spectrum intensity of the compound in the SEC spin column filtrate (FLJ12857-derived protein; [3]): 193021 | spectrum intensity of the compound in the SEC spin column filtrate (FLJ12857-derived protein; compound 25 μM, protein 0 μM): 170740 | spectrum intensity of the compound in the SEC spin column filtrate (FLJ12857-derived protein; compound 25 μM, protein 5 μM): 491313 | spectrum intensity of the compound in the SEC spin column filtrate (FLJ12857-derived protein; compound 25 μM, protein 10 μM): 747644 | spectrum intensity of the compound in the SEC spin column filtrate (FLJ12857-derived protein; compound 25 μM, protein 25 μM): 725722 | spectrum intensity of the compound in the SEC spin column filtrate (FLJ12857-derived protein; compound 62.5 μM, protein 0 μM): 1417386 | spectrum intensity of the compound in the SEC spin column filtrate (FLJ12857-derived protein; compound 62.5 μM, protein 5 μM): 1918601 | spectrum intensity of the compound in the SEC spin column filtrate (FLJ12857-derived protein; [4]): 2231237 | spectrum intensity of the compound in the SEC spin column filtrate (FLJ12857-derived protein; [5]): 2511342 | interaction judged from spectrum intensity of the compound in the SEC spin column filtrate (protein fraction eluted from SEC) (FLJ12857-derived protein; [6]): concentration-dependent interaction

CN1CCN(CCCN2c3ccccc3Sc3ccc(S(=O)(=O)N(C)C)cc32)CC1 [thioproperasine, thioproperazine]
spectrum intensity of the compound in the SEC spin column filtrate (FLJ41550-derived protein; compound 12.5 μM, protein 0 μM): 252410 | spectrum intensity of the compound in the SEC spin column filtrate (FLJ41550-derived protein; compound 12.5 μM, protein 5 μM): 377673 | spectrum intensity of the compound in the SEC spin column filtrate (FLJ41550-derived protein; [2]): 478699 | spectrum intensity of the compound in the SEC spin column filtrate (FLJ41550-derived protein; [3]): 941513 | spectrum intensity of the compound in the SEC spin column filtrate (FLJ41550-derived protein; compound 25 μM, protein 0 μM): 262646 | spectrum intensity of the compound in the SEC spin column filtrate (FLJ41550-derived protein; compound 25 μM, protein 5 μM): 778927 | spectrum intensity of the compound in the SEC spin column filtrate (FLJ41550-derived protein; compound 25 μM, protein 10 μM): 1198533 | spectrum intensity of the compound in the SEC spin column filtrate (FLJ41550-derived protein; compound 25 μM, protein 25 μM): 983016 | spectrum intensity of the compound in the SEC spin column filtrate (FLJ41550-derived protein; compound 62.5 μM, protein 0 μM): 1132948 | spectrum intensity of the compound in the SEC spin column filtrate (FLJ41550-derived protein; compound 62.5 μM, protein 5 μM): 1457362 | spectrum intensity of the compound in the SEC spin column filtrate (FLJ41550-derived protein; [4]): 2445959 | spectrum intensity of the compound in the SEC spin column filtrate (FLJ41550-derived protein; [5]): 2997892 | interaction judged from spectrum intensity of the compound in the SEC spin column filtrate (protein fraction eluted from SEC) (FLJ41550-derived protein; [6]): concentration-dependent interaction | FLJ No of the derived protein with which the compound was judged to exhibit a concentration-dependent interaction [1]: FLJ37909; also recorded: FLJ41550

From patent US20090143285A1, “TARGET PROTEIN AND TARGET GENE FOR DRUG DISCOVERY AND SCREENING METHOD” (REVERSE PROTEOMICS RESEARCH INSTITUTE CO., LTD., priority 2005, published 2009)
